Source: patent US20240299345A1, “GINKGOLIDE B AND ITS DERIVATIVES FOR INHIBITING AND/OR REVERSING AGING” (CHINA MEDICAL UNIVERSITY, priority 2023, published 2024)

Key:
[1] = tested on: skeletal muscle of aged C57BL/6 mice; experiment: Muscle histology (fiber type, oil red O, Masson's trichrome, central nuclei) and vascular network in aged mice; type: in vivo, mouse; conditions: GB 2 months
Method: (§1) Body composition was measured by Minispec LF50 TD-NMR (Bruker, MA, USA) based on nuclear magnetic resonance methods. Briefly, mice were anesthetized for the duration of the procedure by 3% isoflurane (Zoctis, London, UK) and placed in the scanning chamber in the prone position, with the limbs and tail stretched away from the body. The analysis would be conducted by default software per manufacturer's protocol. The vascular networks […] were quantified by in vivo micro-computed tomography (U-CT, Milabs, Netherlands). Briefly, mice intravenously received 150 μL ExiTron™ nano 12000 (#130-095-698, Miltonic Biotec GmbH, Bergisch Gladbach, Germany), and then mice were anesthetized with isoflurane before being positioned on the scanning chamber. After scanning, the blood vessels were analyzed by a curved multiplanar reconstruction algorithm by using Osirix software (Bernex, Switzerland).

[2] = tested on: 20-month-old aged female C57BL/6 mice; experiment: Metabolic health in aged mice (body weight, composition, intake, lipids, IPGTT, IPITT, gene expression); type: in vivo, mouse
Method: For the food and water intake measurement, mice were divided into individual animal cages individually for 3 days for stabilizing the animals, and then daily consumption was recorded. The values were calculated by adjusting for body weight.
as §1
Mice fasted 16 hours and 2 hours before performing an IPGT test and IPIT test, respectively. IPGTT was performed by intraperitoneal injection of fasted mice with 1% body weight of sterile glucose/PBS (20% weight/volume). IPITT was performed by intraperitoneal injection of fasted mice with insulin (0.75 unit/kg body weight) (#12585014, Gibco). Blood glucose levels were measured at indicative timepoints after injection by a blood glucometer (countour plus, Ascensia Diabetes Care, Hong Kong).
Serum was collected by cardiac puncture upon sacrifice.
(§2) RNAs were purified by using the TRIzol® (#15596018, Invitrogen) and chloroform method (#C7559, Sigma-Aldrich) and reversed transcribed using High-Capacity cDNA Reverse Transcription Kit (#4368814, Applied Biosystems, Foster City, CA, USA). The quantitative RT-PCR was conducted with universal probe system (Roche Life Science, Indianapolis, IN, USA) by using a QuantStudio™ 7 Flex Real-Time PCR System (Applied Biosystems) and was normalized by the expression of GAPDH.

[3] = tested on: H2O2-induced senescent human MSCs; experiment: H2O2-induced senescence in human MSCs; type: cell-based; conditions: GB 5 mg/L
From the text: C2C12 myoblast cell line (#CRL-1772TM, ATCC, Manassas, VA, USA) was expanded in high-glucose DMEM (#D7777, Sigma-Aldrich) with 10% FBS (#10270106, Gibco, Waltham, MA, USA) and 1% PSG (#10378016, Gibco). Passage 15-20 C2C12 was considered as multiple population doublings C2C12. Subconfluent C2C12 was differentiated to myotubes by myogenic induction medium, high-glucose DMEM (Sigma-Aldrich) containing 2% horse scrum (#16050122, Gibco) for 5 days. Aged bone-marrow monocytes were isolated from 20-month-old female C57BL/6 mice and then differentiated into macrophages in RPMI 1640 (#11875085, Gibco) supplemented with 10% FBS and 20 ng/ml M-CSF (#315-02, PeproTech, Cranbury, NJ, USA). Inflammatory MI macrophages were induced by 45 ng/mL IFN-γ (#485-MI-100, R&D Systems, Minneapolis, MN, USA) +100 ng/mL LPS (#L4391, Sigma-Aldrich). The indicative cells were then treated with or without GB (5 mg/L) for 48 hr. Commercial human mesenchymal stem cells (MSCs)40 were cultured in MSC maintenance medium consisting of IMDM, 10% FBS (#10270106, Gibco), 10 ng/ml bFGF (#233-FB, R&D Systems) and 1% PSG (#10378016, Gibco). To induce senescence, we treated cells at approximately 50% confluence with 200 μM H2O2 for 2 hr and then washed cells by PBS two times to remove H202. The cells were treated with GB (5 mg/L) or vehicle in fresh growth medium and subjected to the subsequent experiments at indicative time point.
Cell viability was measured by a CCK-8 kit (#ab228554, Abcam), and cell proliferation was determined by manually cell counting with hemocytometer. Senescence-associated β-galactosidase activity was determined by senescence-associated β-galactosidase staining kit (#9860, Cell Signaling Technology, Danvers, Massachusetts, USA) according to the manufacturer's instructions. Senescence-associated heterochromatin foci were visualized by DAPI staining.
as §2

[4] = tested on: 20-month-old female C57BL/6 mice; experiment: Lifespan and cancer incidence analysis, lifelong GB from 20 months of age; type: in vivo, mouse
From the text: The mice were not involved in any experiments to maximally reduce potential interference and stress to animals.

[5] = tested on: 20-month-old aged female C57BL/6 mice
Method: Animals were kept up to five per cage and were randomly assigned to control and experimental groups in all experiments. […] For the short-term experiment, 3-(young), 6-(adult) and 20-month-old (aged) female C57BL/6 mice were administered 12 mg/kg body weight GB (#G6910, Sigma-Aldrich, St. Louis, MO, USA) or vehicle daily by oral gavage for two months.
The noninvasive 31-item frailty index established by Whitehead et al. was used to evaluate frailty in mice (Whitehead, J. C. et al. A clinical frailty index in aging mice: comparisons with frailty index data in humans. J Gerontol A Biol Sci Med Sci 69, 621-632, doi:10.1093/gerona/glt136 (2014)). Whole assessments were conducted by blind investigators as possible. The scored items represent the aging-related deteriorations based on the criteria in clinical practice, consisting of the integument, musculoskeletal system, vestibulocochlear and auditory systems, ocular and nasal systems, digestive system, urogenital system, respiratory system, signs of discomfort, body weight and body surface temperature. Surface body temperature was determined by an infrared thermometer (Thermo Distance, Terraillon, Croissy-sur-seine, France), and grip strength was measured by the standard equipment described in the later section. The other subjective observations were scored by researchers. The scores 0, 0.5 and 1 indicated no sign of frailty, moderate defect and severe defect, respectively. For the body temperature, grip strength and body weight scoring, the average and standard deviation (STDEV) values were used as a baseline. A change within one STDEV is scored as a 0, a decreased change over one STDEV but lower than two STDEV was scored as a 0.5 and a change more than two STDEV was scored as a 1.

[6] = tested on: kidney, heart, spleen and liver in aged mice; conditions: mouse, in vivo
Method: All animals were purchased from Laboratory Animal Services Centre, the Chinese University of Hong Kong, ad libitum fed the standard diet (#5V0f, LabDiet, St. Louis, MO, USA), and housed at specific-pathogen-free and humidity-controlled conditions under a 12 light: 12 dark photoperiod with temperature at 20-22° C. Animals were kept up to five per cage and were randomly assigned to control and experimental groups in all experiments. […] For the short-term experiment, 3-(young), 6-(adult) and 20-month-old (aged) female C57BL/6 mice were administered 12 mg/kg body weight GB (#G6910, Sigma-Aldrich, St. Louis, MO, USA) or vehicle daily by oral gavage for two months. […] GB was diluted to the appropriate concentration in 100 μL of sterile PBS (#10378016, Gibco, Waltham, MA, USA).
Tissue samples were harvested and embedded in paraffin or in OCT (#4583, Sakura Finetek USA, Torrance, CA, USA). For paraffin-embedded samples, 10 μm sections were deparaffinized by xylene and alcohol gradient treatment and were then hydrated by distilled water and processed for heat-induced antigen retrieval with antigen retrieval solution at 70° C. for 1.5 hours before staining. For OCT-embedded samples, 10 μm sections were hydrated by distilled water before staining. Hematoxylin and cosin staining (#MHS16 and #HT110116 Sigma-Aldrich), oil red O staining (#00625, Sigma-Aldrich), and Masson's trichrome staining (#HT15, Sigma-Aldrich) were used to assess the histology, lipid droplet, and collagen deposition. For immunohistochemical staining, antigen-retrieval samples were blocked with 5% bovine serum albumin (BSA) (#A9647, Sigma-Aldrich) for 1 hour at room temperature and incubated with primary antibodies overnight at 4° C., followed by a ready-to-use IHC/ICC Kit (#K405, BioVision, Milpitas, CA, USA) at room temperature. The samples were then suspended with double-distilled water and then stained with hematoxylin. For immunocytochemical staining, samples were blocked with 5% BSA (Sigma-Aldrich) for 1 hour at room temperature and incubated with primary antibodies overnight at 4° C., then washed with PBS for ten minutes, and then incubated with secondary antibody for 1 hour at room temperature, then washed with PBS three times for ten minutes.

[7] = aged mice, GB 2 months, p<0.0001
[8] = among the three groups (young, vehicle-aged, GB-aged)
[9] = of 18 measurements increased by aging

CC1C(=O)OC2C(O)C34C5CC(C(C)(C)C)C36C(OC(=O)C6O)OC4(C(=O)O5)C12O (stereo not drawn) [GB, Ginkgolide B]
capillary density ([1]; CD31 staining of quadriceps, p=0.0492): dramatically enlarges | aging-related changes in fiber-type switching ([1]; GA muscle, in particular type 1 and 2B myofibers): partially reversed | number of central myonuclei in aged myofibers ([1]; p=0.0011): reduced | collagen deposition in muscle ([1]; Masson's trichrome, GA muscle, p=0.0004): reduced | deep femoral artery ([1]; micro-CT, p=0.012): dramatically enlarges | intramuscular lipid infiltration ([1]; oil red O, GA muscle, p=0.01): reduced | food and water consumptions ([2]; aged mice, GB 2 months vs vehicle, p=0.5127 and 0.9368): not improved | lean mass [2, 7]: increase | whole-body fat mass [2, 7]: decrease | expression of Pkm in aged skeletal muscle ([2]; aged mice, GB 2 months, p<0.0001, not in aged liver): restored | expression of Glut4 in aged skeletal muscle ([2]; aged mice, GB 2 months, p=0.0035, not in aged liver): restored | aging-related alteration in serum total cholesterol level ([2]; aged mice, GB 2 months, p=0.0284): reversed | aging-related glucose intolerance (IPGTT) ([2]; aged mice, GB 2 months, p=0.0322 in AUC): improved | aging-related alteration in serum triglyceride level ([2]; aged mice, GB 2 months, p=0.0424): reversed | body weight reduction ([2]; aged mice, post-GB administration 2 months, p=0.0123): 6% | fasting blood glucose [2, 8]: no significant difference | insulin sensitivity (IPITT) [2, 8]: no difference | cellular morphology [3]: restored the spindle sharp from flattened and enlarged morphology | expression of senescence markers [3]: reduced | proliferation [3]: promoted | senescence-associated heterochromatin foci and nucleus size [3]: reduced | senescence-associated β-galactosidase (SA-β-Gal) staining ([3]; p=0.0007): reduced | cellular viability (CCK8) ([3]; p=0.0026): promoted | age at 50% cumulative cancer incidence ([4]; GB group, vehicle 891 days, p=0.0002 log-rank): 1025 days | aging-associated mortality ([4]; GB vs vehicle aged mice): delayed | hazard ratio by Mantel-Haenszel ([4]; GB vs vehicle aged mice): 0.4577 | hazard ratio by log-rank test ([4]; GB vs vehicle aged mice): 0.3526 | macroscopic tumors detected by necropsy ([4]; GB-aged mice compared with vehicle group): less macroscopic tumors | median lifespan extension ([4]; from the inception of GB administration at 20 months, 12 mg/kg daily, p=0.0002 log-rank, 0.0064 Gehan-Breslow-Wilcoxon): 30% | lifespan extension (summary statement) ([4]; lifelong oral GB in mice starting from 20 months old): 20% | median lifespan extensions by tumor incidence ([4]; p=0.0011 and 0.03 by log-rank test): observed in both tumor and non-tumor cohorts | extension of mean maximal lifespans of the 10% and 20% longest-lived mice ([4]; p=0.0286 and 0.0006): around 55 days | reduction of aging-related frailty index score ([5]; aged mice, GB 2 months vs vehicle-aged, p<0.0001): 63.1% | average frailty index score ([5]; aged mice, GB 2 months, mean±SD, vehicle-aged 0.43±0.13, young 0.01±0.01): 0.16±0.05 | deterioration of frailty ([5]; mouse, in vivo): did not observe any deterioration | number of aging-related frailty measurements modestly attenuated [5, 9]: 3 | number of aging-related frailty measurements reversed [5, 9]: 13 | circulating GOT, GPT and UA [6]: reduction | liver and spleen size [6]: no effect
